Source: ChEMBL document CHEMBL1201862, “PubChem BioAssay data set” (2004)
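Assay format: 96-well plates, 48-hour exposure. At the GI50, growth is halved.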 Activity calls are given as the source filed them. No stated cut-off is given here; in the data, active = GI50 up to about 1.1 µM and inactive = higher.

Tests used:
Assay in all cases: growth of human tumour cells (NCI), 48 h
SW-620 = test system: SW-620
NCI-H226 = test system: NCI-H226
TK-10 = test system: TK-10
A498 = test system: A498
SK-MEL-28 = test system: SK-MEL-28
MDA-N = test system: MDA-N
LOX IMVI = test system: LOX IMVI
HOP-62 = test system: HOP-62
MCF7 = test system: MCF7
UACC-62 = test system: UACC-62
SK-OV-3 = test system: SK-OV-3
SF-539 = test system: SF-539
HT-29 = test system: HT-29
CCRF-CEM = test system: CCRF-CEM
NCI-H522 = test system: NCI-H522
COLO 205 = test system: COLO 205
UACC-257 = test system: UACC-257
MDA-MB-231 = test system: MDA-MB-231
HL-60 = test system: HL-60
A549 = test system: A549
BT-549 = test system: BT-549
SR = test system: SR
K562 = test system: K562
OVCAR-4 = test system: OVCAR-4
SNB-19 = test system: SNB-19
NCI-H460 = test system: NCI-H460
SNB-75 = test system: SNB-75
NCI/ADR-RES = test system: NCI/ADR-RES
Hs-578T = test system: Hs-578T
HOP-92 = test system: HOP-92
HCT-15 = test system: HCT-15
SF-295 = test system: SF-295
SK-MEL-2 = test system: SK-MEL-2
SK-MEL-5 = test system: SK-MEL-5
KM12 = test system: KM12
CAKI-1 = test system: CAKI-1
ACHN = test system: ACHN
SN12C = test system: SN12C
MOLT-4 = test system: MOLT-4
OVCAR-8 = test system: OVCAR-8
OVCAR-3 = test system: OVCAR-3
UO-31 = test system: UO-31
M14 = test system: M14
T47D = test system: T47D
U-251 = test system: U-251
EKVX = test system: EKVX
NCI-H23 = test system: NCI-H23
Malme-3M = test system: Malme-3M
OVCAR-5 = test system: OVCAR-5
SF-268 = test system: SF-268
786-0 = test system: 786-0
HCT-116 = test system: HCT-116
RXF 393 = test system: RXF 393
IGROV-1 = test system: IGROV-1
MDA-MB-435 = test system: MDA-MB-435
PC-3 = test system: PC-3
HCC 2998 = test system: HCC 2998
DU-145 = test system: DU-145
RPMI-8226 = test system: RPMI-8226

For COc1cc(C2S/C(=C/c3ccccc3)C(=O)N2c2ccc([N+](=O)[O-])cc2)cc(OC)c1OC (stereo not drawn), the GI50 (SW-620) was > 100 µM (inactive), the GI50 (NCI-H226) was 58.9 µM (inactive) and the GI50 (TK-10) was > 100 µM (inactive). For the same compound, the GI50 (A498) was 73.1 µM (inactive), the GI50 (SK-MEL-28) was > 100 µM (inactive) and the GI50 (MDA-N) was > 56.8 µM (inactive). The GI50 (LOX IMVI) was 19 µM (inactive), the GI50 (HOP-62) was 92.7 µM (inactive) and the GI50 (MCF7) was 58.3 µM (inactive). The GI50 (UACC-62) was 3.91 µM (inactive), the GI50 (SK-OV-3) was > 100 µM (inactive) and the GI50 (SF-539) was > 100 µM (inactive). The GI50 (HT-29) was > 39.6 µM (inactive), the GI50 (CCRF-CEM) was 32.6 µM (inactive) and the GI50 (NCI-H522) was > 63.5 µM (inactive). For the same compound, the GI50 (COLO 205) was 26.1 µM (inactive), the GI50 (UACC-257) was 60.7 µM (inactive) and the GI50 (MDA-MB-231) was > 100 µM (inactive). For the same compound, the GI50 (HL-60) was 40.6 µM (inactive), the GI50 (A549) was > 96.4 µM (inactive) and the GI50 (BT-549) was 44.9 µM (inactive). For the same compound, the GI50 (SR) was 9.27 µM (inactive), the GI50 (K562) was 3.68 µM (inactive) and the GI50 (OVCAR-4) was 45.9 µM (inactive). The GI50 (SNB-19) was > 100 µM (inactive), the GI50 (NCI-H460) was 48 µM (inactive) and the GI50 (SNB-75) was > 100 µM (inactive). The GI50 (NCI/ADR-RES) was > 80.4 µM (inactive), the GI50 (Hs-578T) was > 100 µM (inactive) and the GI50 (HOP-92) was > 100 µM (inactive). For the same compound, the GI50 (HCT-15) was 26.4 µM, the GI50 (SF-295) was 58.1 µM (inactive) and the GI50 (SK-MEL-2) was > 91.4 µM (inactive). For the same compound, the GI50 (SK-MEL-5) was 25.6 µM (inactive), the GI50 (KM12) was 28.6 µM (inactive) and the GI50 (CAKI-1) was 97.1 µM (inactive). For the same compound, the GI50 (ACHN) was > 21 µM (inactive), the GI50 (SN12C) was > 90.6 µM (inactive) and the GI50 (MOLT-4) was 47.3 µM (inactive). The GI50 (OVCAR-8) was > 100 µM (inactive), the GI50 (OVCAR-3) was > 78 µM (inactive) and the GI50 (UO-31) was 47 µM (inactive). The GI50 (M14) was 26.1 µM (inactive), the GI50 (T47D) was 40.9 µM (inactive) and the GI50 (U-251) was > 100 µM (inactive). For the same compound, the GI50 (EKVX) was 39.6 µM (inactive), the GI50 (NCI-H23) was > 100 µM (inactive) and the GI50 (Malme-3M) was > 100 µM (inactive). For the same compound, the GI50 (OVCAR-5) was 15.5 µM (inactive), the GI50 (SF-268) was > 83.9 µM (inactive) and the GI50 (786-0) was > 100 µM (inactive). The GI50 (HCT-116) was > 64.9 µM (inactive), the GI50 (RXF 393) was > 100 µM (inactive) and the GI50 (IGROV-1) was > 20.6 µM (inactive). For the same compound, the GI50 (MDA-MB-435) was 18 µM (inactive), the GI50 (PC-3) was > 100 µM (inactive) and the GI50 (HCC 2998) was > 100 µM (inactive). For the same compound, the GI50 (DU-145) was > 41.2 µM (inactive) and the GI50 (RPMI-8226) was > 57.7 µM (inactive).
In the case of c1ccc(-c2c[nH]c(SC(c3ccccc3)c3ccccc3)n2)cc1, the GI50 (SW-620) is reported as 27.6 µM (inactive), the GI50 (NCI-H226) is reported as 17.3 µM (inactive) and the GI50 (TK-10) is reported as 21.1 µM (inactive). For the same compound, the GI50 (A498) was 24.7 µM (inactive), the GI50 (SK-MEL-28) was 33.7 µM (inactive) and the GI50 (MDA-N) was 20.7 µM (inactive). For the same compound, the GI50 (LOX IMVI) was 17.6 µM (inactive), the GI50 (HOP-62) was 29 µM (inactive) and the GI50 (MCF7) was 20.3 µM (inactive). For the same compound, the GI50 (UACC-62) was 14.2 µM (inactive), the GI50 (SK-OV-3) was 46.9 µM (inactive) and the GI50 (SF-539) was 30.4 µM (inactive). The GI50 (HT-29) was 10.9 µM (inactive), the GI50 (CCRF-CEM) was 19.3 µM (inactive) and the GI50 (NCI-H522) was 17.1 µM (inactive). For the same compound, the GI50 (COLO 205) was 13 µM (inactive), the GI50 (UACC-257) was 18 µM (inactive) and the GI50 (MDA-MB-231) was 58.6 µM (inactive). For the same compound, the GI50 (HL-60) was 11.1 µM (inactive), the GI50 (A549) was 21.9 µM (inactive) and the GI50 (BT-549) was 25.1 µM (inactive). For the same compound, the GI50 (SR) was 13.3 µM (inactive), the GI50 (K562) was 12.7 µM (inactive) and the GI50 (OVCAR-4) was 23.4 µM (inactive). For the same compound, the GI50 (SNB-19) was 38 µM (inactive), the GI50 (NCI-H460) was 10.2 µM (inactive) and the GI50 (SNB-75) was 32.1 µM (inactive). The GI50 (NCI/ADR-RES) was 11.1 µM (inactive), the GI50 (Hs-578T) was 33.3 µM (inactive) and the GI50 (HOP-92) was 9.51 µM (inactive). The GI50 (HCT-15) was 13.3 µM, the GI50 (SF-295) was 15.2 µM (inactive) and the GI50 (SK-MEL-2) was 16.9 µM (inactive). For the same compound, the GI50 (SK-MEL-5) was 12.4 µM (inactive), the GI50 (KM12) was 16.8 µM (inactive) and the GI50 (CAKI-1) was 13.8 µM (inactive). The GI50 (ACHN) was 24.5 µM (inactive), the GI50 (SN12C) was 17.4 µM (inactive) and the GI50 (MOLT-4) was 15.7 µM (inactive). The GI50 (OVCAR-8) was 19.6 µM (inactive), the GI50 (OVCAR-3) was 33.4 µM (inactive) and the GI50 (UO-31) was 29.6 µM (inactive). The GI50 (M14) was 30.8 µM (inactive), the GI50 (T47D) was 8.95 µM (inactive) and the GI50 (U-251) was 15 µM (inactive). The GI50 (EKVX) was 13.3 µM (inactive), the GI50 (NCI-H23) was 14.7 µM (inactive) and the GI50 (Malme-3M) was 15 µM (inactive). For the same compound, the GI50 (OVCAR-5) was 55.7 µM (inactive), the GI50 (SF-268) was 43.8 µM (inactive) and the GI50 (786-0) was 32.1 µM (inactive). For the same compound, the GI50 (HCT-116) was 12.7 µM (inactive), the GI50 (RXF 393) was 15.8 µM (inactive) and the GI50 (IGROV-1) was 19.2 µM (inactive). For the same compound, the GI50 (MDA-MB-435) was 21.1 µM (inactive), the GI50 (PC-3) was 22.1 µM (inactive) and the GI50 (HCC 2998) was 17 µM (inactive). For the same compound, the GI50 (DU-145) was 23.4 µM (inactive) and the GI50 (RPMI-8226) was 10.8 µM (inactive).
